Experimental data taken from US20100075957A1, “AMINODIHYDROTHIAZINE DERIVATIVES SUBSTITUTED WITH A CYCLIC GROUP” (SHIONOGI & CO., LTD., priority 2007, published 2010).

These compounds were tested against T1, Recombinant human BACE-1 (Homo sapiens, UniProt P56817) (assay: Assay of β-secretase-inhibiting activity). Details: Recombinant human BACE-1 7.4 nM, substrate peptide 18 nM, pH 5.0, 30° C., 3 hours; Table 141; read-out: IC50.
T1 construct: purchased R&D Systems
Format: biochemical
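Also: substrate is a peptide carrying biotin and europium cryptate, after the enzyme reaction, Streptavidin-XL665 is added and incubated 1 h at 30 °C before fluorescence reading.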

T1 sequence (P56817 46-501): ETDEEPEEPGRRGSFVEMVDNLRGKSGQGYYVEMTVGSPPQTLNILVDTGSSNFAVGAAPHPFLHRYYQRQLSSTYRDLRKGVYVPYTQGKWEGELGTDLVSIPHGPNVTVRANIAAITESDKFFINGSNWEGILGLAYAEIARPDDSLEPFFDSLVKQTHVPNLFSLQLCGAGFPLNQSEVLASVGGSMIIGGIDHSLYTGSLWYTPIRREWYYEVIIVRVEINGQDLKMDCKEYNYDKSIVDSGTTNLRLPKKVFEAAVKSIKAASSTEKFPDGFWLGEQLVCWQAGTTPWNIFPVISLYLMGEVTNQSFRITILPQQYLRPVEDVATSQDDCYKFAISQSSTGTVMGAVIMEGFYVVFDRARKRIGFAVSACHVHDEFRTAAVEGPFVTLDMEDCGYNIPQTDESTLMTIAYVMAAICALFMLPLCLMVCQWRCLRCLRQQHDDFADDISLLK

IC50 [nM] | SMILES
510 | C[C@@]1(c2cc(Nc3ncc4ccccn34)ccc2F)CCSC(N)=N1 [Compound 668]
10 | C[C@@]1(c2cc(NC(=O)c3coc(C(F)(F)F)n3)ccc2F)CCSC(N)=N1 [Compound 669]
10 | Cc1cnc(C(=O)Nc2ccc(F)c([C@@]3(C)N=C(N)SCC34CC4)c2)cn1 [Compound 674]
50 | COc1ncc(NC(=O)c2cnc(C)cn2)cc1[C@]1(C)CCSC(N)=N1 [Compound 680]
40 | COc1cnc(C(=O)Nc2ccc(F)c([C@@]3(C)N=C(N)SCC3=O)c2)cn1 [Compound 689]
160 | C[C@@]1(c2cc(NC(=O)c3cnc(NCC(F)(F)F)cn3)ccc2F)CCSC(N)=N1 [Compound 702]

Same assay, conditions: Recombinant human BACE-1 7.4 nM, substrate peptide 18 nM, pH 5.0, 30° C., 3 hours; time-resolved fluorescence ratio 665/620; read-out: IC50 values (50% inhibitory concentration against the enzymatic activity)

SMILES | IC50 [nM]
COc1cnc(C(=O)Nc2ccnc([C@]3(C)CCSC(N)=N3)c2)c(N)n1 [Compound 691] | ≤ 1000
C#CCOc1cnc(C(=O)Nc2ccc(F)c([C@]3(C)CC(C)(C)SC(N)=N3)c2)cn1 [Compound 692] | ≤ 1000
C#CCOc1cnc(C(=O)Nc2cccc([C@]3(C)CC(C)(C)SC(N)=N3)c2)cn1 [Compound 693] | ≤ 1000
COc1cnc(C(=O)Nc2cccc([C@]3(C)CC(C)(C)SC(N)=N3)c2)cn1 [Compound 694] | ≤ 1000
CC#CCOc1cnc(C(=O)Nc2cccc([C@]3(C)CC(C)(C)SC(N)=N3)c2)cn1 [Compound 695] | ≤ 1000
CC1(C)C[C@@](C)(c2cc(NC(=O)c3ccc(C#N)cn3)ccn2)N=C(N)S1 [Compound 696] | ≤ 1000
C[C@@]1(c2cc(NC(=O)c3cn4cc(C#N)nc4cn3)ccc2F)CCSC(N)=N1 [Compound 697] | ≤ 1000
C#Cc1cn2cc(C(=O)Nc3ccc(F)c([C@]4(C)CCSC(N)=N4)c3)ncc2n1 [Compound 698] | ≤ 1000
C[C@@]1(c2cc(NC(=O)c3cn4cc(C#N)nc4cn3)ccn2)CCSC(N)=N1 [Compound 699] | ≤ 1000
C#Cc1cn2cc(C(=O)Nc3ccnc([C@]4(C)CCSC(N)=N4)c3)ncc2n1 [Compound 700] | ≤ 1000
C[C@@]1(c2cc(NC(=O)c3cnc(NCC#N)cn3)ccc2F)CCSC(N)=N1 [Compound 701] | ≤ 1000

The remaining lines, values ahead:

IC50 [nM] | SMILES
≤ 1000 | CCc1nc(C(=O)Nc2ccc(F)c([C@]3(C)CCSC(N)=N3)c2)co1 [Compound 670]
≤ 1000 | C[C@@]1(c2cc(NC(=O)c3cnc(OCC4CCO4)cn3)ccc2F)CCSC(N)=N1 (stereo partly drawn) [Compound 672]
≤ 1000 | COc1cnc(C(=O)Nc2ccc(F)c([C@@]3(C)N=C(N)SCC3(F)F)c2)cn1 [Compound 673]
≤ 1000 | COc1cnc(C(=O)Nc2ccc(F)c([C@@]3(C)N=C(N)SCC34CC4)c2)cn1 [Compound 675]
≤ 1000 | C#CCOc1cnc(C(=O)Nc2ccc(F)c([C@@]3(C)N=C(N)SCC34CC4)c2)cn1 [Compound 676]
≤ 1000 | C[C@@]1(c2cc(NC(=O)c3ncc(Cl)cc3Cl)ccn2)CCSC(N)=N1 [Compound 677]
≤ 1000 | C[C@@]1(c2cc(NC(=O)c3ncc(C(F)(F)F)cc3Cl)ccn2)CCSC(N)=N1 [Compound 678]
≤ 1000 | COc1cnc(C(=O)Nc2ccnc([C@]3(C)CCSC(N)=N3)c2)c(C)c1 [Compound 679]
≤ 1000 | COc1cnc(C(=O)Nc2ccc(F)c([C@@]3(C)N=C(N)SC[C@@H]3OCc3ccccc3)c2)cn1 [Compound 683]
≤ 1000 | COc1cnc(C(=O)Nc2ccc(F)c([C@@]3(C)N=C(N)SC[C@H]3OCc3ccccc3)c2)cn1 [Compound 684]
≤ 1000 | COc1cnc(C(=O)Nc2ccnc([C@]3(C)CC(C)(C)SC(N)=N3)c2)c(C)c1 [Compound 685]
≤ 1000 | CC1(C)C[C@@](C)(c2cc(NC(=O)c3ncc(Cl)cc3Cl)ccn2)N=C(N)S1 [Compound 686]
≤ 1000 | C[C@]1(c2cc(NC(=O)c3ncc(Cl)cc3Cl)ccc2F)N=C(N)SCC1=O [Compound 687]
≤ 1000 | COc1cnc(C(=O)Nc2ccnc([C@]3(C)CC(C)(C)SC(N)=N3)c2)c(N)n1 [Compound 688]
≤ 1000 | C[C@@]1(c2cc(NC(=O)c3ncc(Cl)cc3Cl)ccc2F)CCSC(N)=N1 [Compound 690]
≤ 1000 | C[C@@]1(c2cc(NC(=O)c3cnc(NCC(F)(F)F)cn3)ccc2F)CCSC(N)=N1 [Compound 702]
